The target of this assay is T1, porcine ficolin 2 (FCN2) (Sus scrofa, UniProt Q29041).
T1 sequence (Q29041 27-323): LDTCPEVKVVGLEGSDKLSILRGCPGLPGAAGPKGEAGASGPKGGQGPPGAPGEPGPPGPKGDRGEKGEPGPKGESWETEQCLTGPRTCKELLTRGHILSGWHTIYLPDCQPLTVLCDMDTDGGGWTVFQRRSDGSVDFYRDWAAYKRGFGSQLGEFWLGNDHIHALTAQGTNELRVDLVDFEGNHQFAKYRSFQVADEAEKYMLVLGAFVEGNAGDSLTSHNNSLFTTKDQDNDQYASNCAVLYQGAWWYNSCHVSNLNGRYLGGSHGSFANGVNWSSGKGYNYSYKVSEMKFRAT
Type of assay: biochemical. As to conditions: 60% (v/v) pig serum, 37 °C, 20 min; PMOXA-coated NPs; S2 site, competitive.

Consider `CC(=O)N[C@H]1C(O)O[C@H](CO)[C@@H](O)[C@@H]1O` (stereo partly shown) [GlcNAc], for which the IC50 turned out to be 67 mM.

In general, IC50 refers to the concentration needed to halve the response being measured.

Values taken from article PMC11920416 (Nature Communications, 2025).
